Source: patent US20220088144A1, “SGLT-2 INHIBITORS OR IL-1R ANTAGONISTS FOR REDUCTION OF HYPOGLYCAEMIA AFTER BARIATRIC SURGERY” (UNIVERSITÄTSSPITAL BASEL, priority 2019, published 2022)

How the values were obtained:
[1] = subcutaneous administration; cited from earlier work
[2] = cited from earlier work
[3] = Serum IL-1Ra level after anakinra injection; assay type: in vivo, human; conditions: average; 100 mg s.c.; increased from an average of 272 pg/ml
Text: (§1) The secondary objectives are to evaluate whether treatment of empagliflozin (Jardiance®) or anakinra (Kineret®) have effects on the following aspects: • level of insulin secretion and sensitivity • levels of GLP-1, glucagon and C-peptide • levels of IL-6; IL-1Ra, CRP • scores in Edinburgh Hypoglycaemia Scale (clinical score for assessment of hypoglycemia), Stanford Sleepiness Scale (clinical score of assessment of sleepiness) as well as Sigstad Score (clinical score for early and late dumping symptoms) • Length of time and amount of glucose needed for restoring normoglycemia.
Individual body weights remained stable throughout the study period. […] Leukocyte and CRP levels were not elevated and remained stable throughout the trial.

[4] = system: patients after bariatric surgery with post-prandial hypoglycaemia; assay: Clinical symptom scores during mixed-meal test (Edinburgh Hypoglycemia Scale, Sigstad Score, Stanford Sleepiness Scale); assay type: in vivo, human; design: key to Edinburgh Hypoglycemia Scale score, timepoint 180 min / Edinburgh Hypoglycemia Scale score, timepoint −120 min / Edinburgh Hypoglycemia Scale score, timepoint 0 min / Edinburgh Hypoglycemia Scale score, timepoint 60 min / Edinburgh Hypoglycemia Scale score, timepoint 90 min / Edinburgh Hypoglycemia Scale score, timepoint 120 min / Edinburgh Hypoglycemia Scale score, timepoint 150 min: 0 (=no symptoms); 3 (=severe symptoms); a = sweating; b = palpitations; c = shaking; d = hunger; e = confusion; f = drowsiness; g = odd behaviour; h = speech difficulty; i = incoordination; conditions: for Edinburgh Hypoglycemia Scale score, timepoint 0 min / Edinburgh Hypoglycemia Scale score, timepoint 60 min / Edinburgh Hypoglycemia Scale score, timepoint 90 min / Edinburgh Hypoglycemia Scale score, timepoint 120 min / Edinburgh Hypoglycemia Scale score, timepoint 150 min / Edinburgh Hypoglycemia Scale score, timepoint 180 min / Edinburgh Hypoglycemia Scale score, timepoint −120 min: per patient and visit; for Edinburgh Hypoglycemia Scale score, timepoint 60 min: 60 min after meal; for Edinburgh Hypoglycemia Scale score, timepoint 90 min: 90 min after meal; for Edinburgh Hypoglycemia Scale score, timepoint 120 min: 120 min after meal; for Edinburgh Hypoglycemia Scale score, timepoint 150 min: 150 min after meal; for Edinburgh Hypoglycemia Scale score, timepoint 180 min: 180 min after meal; for model coefficient (treatment vs placebo) for occurrence of Edinburgh composite score ≥6: headed FIG. 11a, generalized linear additive mixed effect model; for Edinburgh Hypoglycemia Scale score, timepoint −120 min: −120 min relative to meal (time of oral dosing)
Procedure: The primary outcome in this study is the change of post-prandial hypoglycaemia after treatment with empagliflozin (Jardiance®) or anakinra (Kineret®) compared to placebo. This was assessed by blood glucose measurements (capillary POCT measurements and plasma glucose) as well as clinical scoring systems (Edinburgh Hypoglycaemia Scale (Deary et al. Diabetologia 1993; 36(8): 771-7), Mixed-Meal-Test (Wiesli et al. Eur J Endocrinol 2005; 152(4): 605-10.) Stanford sleepiness scale).
as §1
(§2) Statistical analysis for this proof-of-concept translational clinical trial was done on a per-protocol basis. Sample size was based on practical considerations due to the lack of pre-existing data for this intervention. All analyses are to be considered exploratory. Analysis of continuous dependent outcome variables (e.g. glucose, insulin, c-peptide, GLP-1, glucagon, insulin secretion index and sensitivity, IL-1p, IL-6, IL-8, TNFα), was done using linear mixed effect models fit by maximum likelihood. Analysis of the binary dependent outcome variables occurrence of severe hypoglycemia requiring glucose rescue and occurrence of composite score ≥6 on the Edinburgh Hypoglycemia Scale was done using a generalized linear additive mixed effect model fit by maximum likelihood (Laplace approximation). Models were fit including fixed effects for categorical variables such as gender, the occurrence of hypoglycemia, treatment and in case of values measured in cell culture supernatants, activation status (non-stimulated, LPS-simulated), as well as the continuous variables time and BMI as indicated. A random-effect for patient was equally included (random by-subject intercepts, fixed slopes). Models were computed using the R “Ime4” and “gamm4” packages. • Individual models were visually assessed for the presence of heteroscedasticity, collinearity and normality of residuals. […] For visual representation, log-transformed outcome values were back-transformed to their initial values.

[5] = system: patients after bariatric surgery with post-prandial hypoglycaemia; assay: Mixed-meal test: insulin, c-peptide, GLP-1, glucagon, insulin secretion and sensitivity indices; assay type: in vivo, human; conditions: for insulin AUC, estimate vs placebo: FIG. 5e; for insulin AUC, estimate vs placebo / c-peptide, estimate vs placebo / insulin, estimate vs placebo / insulin secretion index, effect estimate vs placebo: linear mixed effect model; for c-peptide, estimate vs placebo: FIG. 5f; for c-peptide, estimate vs placebo / insulin, estimate vs placebo: log-transformed outcome; for insulin, estimate vs placebo: FIG. 5d; for insulin secretion index, effect estimate vs placebo: placebo average 108.0 pmol/mmol; for Whole body insulin sensitivity index / Insulin secretion index: median, n=12; for Whole body insulin sensitivity index: placebo 38.0, single dose before mixed meal; for Insulin secretion index: placebo 104.6, single 10 mg empagliflozin oral 2 h or 100 mg anakinra s.c. 3 h before mixed meal; for insulin secretion / insulin release and c-peptide secretion over time: vs placebo
Text: The 12 subjects were randomly assigned into six groups consisting of two subjects receiving study medication in a double-blind, crossed-over manner as outlined in FIG. 2. Patients need to be sober at least eight hours before ingestion of mixed-meal. To ensure that fasting period is not too long, patients receive a small late evening meal consisting of 4 DarVida Natural Crackers as well as 3 Sinergy® drops (see Appendix for specific contents) or are alternatively pleased to have their dinner at around 10 pm. Treatment consists of a single subcutaneous injection of 100 mg Anakinra (Kineret®) or matched placebo three hours before ingestion of the mixed-meal and of a single oral tablet of 10 mg of empagliflozin (Jardiance®) or matched placebo two hours before mixed-meal at each study day. Patients were randomised to receive in different sequences either (1) anakinra and an oral placebo to empagliflozin, (2) empagliflozin and a subcutaneous placebo (0.67 ml 0.9% saline) to anakinra or (3) double placebo. Participants, investigators and study nurses were blinded to the study drug.
as §1
Insulin secretion was measured using standard insulin ELISA.
as §2
Treatment effects are presented in Table 6 as mean effect size estimates with 95% CIs, test-statistics and multiple comparison adjusted p-values (=FDR values). • Missing values for insulin (n=1), GLP-1 (n=4) and glucagon (n=5) were assumed to be missing at random and imputed using multiple imputation with the R-package “mice”. Inferential statistical analyses were done using R version 3.5.2. Descriptive statistics were done with GraphPad Prism8 version 8.0.1(145). […]

[6] = system: patients after bariatric surgery with post-prandial hypoglycaemia; assay: Follow up: off-label therapy with empagliflozin after the study; assay type: in vivo, human; conditions: six patients
Text: Two trial participants were continued to be treated, and four more patients were initiated on off-label therapy with empagliflozin after completion of the study.

[7] = cited from earlier work; remark: listed apart in the source

Compound | Edinburgh Hypoglycemia Scale score, timepoint 0 min [4] | Edinburgh Hypoglycemia Scale score, timepoint 60 min [4] | Edinburgh Hypoglycemia Scale score, timepoint 90 min [4] | Edinburgh Hypoglycemia Scale score, timepoint 120 min [4] | Edinburgh Hypoglycemia Scale score, timepoint 150 min [4] | Edinburgh Hypoglycemia Scale score, timepoint 180 min [4] | model coefficient (treatment vs placebo) for occurrence of Edinburgh composite score ≥6 [4] | Edinburgh Hypoglycemia Scale score, timepoint −120 min [4] | insulin AUC, estimate vs placebo [5] | c-peptide, estimate vs placebo [5] | insulin, estimate vs placebo [5] | insulin secretion index, effect estimate vs placebo [5] | Whole body insulin sensitivity index [5] | Insulin secretion index [5] | insulin secretion / insulin release and c-peptide secretion over time [5] | also measured
anakinra: CAS NO 143090-92-0; recombinant, non-glycosylated form of the human interleukin-1 receptor antagonist (IL-1 Ra), 153 amino acids | 0 | 0 | 0 | 0 | 0 | 0 | −2.429 | 0 | −13.9 | −0.0912 | −0.266 | −18.5 pmol/mmol | 72.1 | 91.6 | reduced | time of maximum plasma concentration [1]: 4 h; reduction of WBC/ANC ([2]; share of patients): 2.4%; mild and transient local injection reactions ([2]; share of subjects treated): 20-50%; serum levels of IL-1Ra after injection of anakinra [3]: 43.836 ng/mL
OC[C@H]1O[C@@H](c2ccc(Cl)c(Cc3ccc(O[C@H]4CCOC4)cc3)c2)[C@H](O)[C@@H](O)[C@@H]1O [empagliflozin] | 0 | 0 | 0 | 0 | 0 | 0 | −2.429 | 0 | −19.32 | −0.2237 | −0.852 | −10.8 pmol/mmol | 84.6 | 99.2 | reduced | efficacy and tolerability more than half a year after initiating off-label therapy [6]: still effective and well tolerated by all patients; frequency of hypoglycemic episodes, off-label therapy ([6]; empagliflozin after completion of the study): lower frequency of hypoglycemic episodes in each of the six patients; mean Plasma-AUC in the steady state [7]: 1.87 µM·h
